Values quoted from earlier work as cited in publication PMC9943811 (Diabetes Therapy, 2022).

Details: ref [19], [20]

terminal half-life: around 12 h
SMILES: N[C@@H](CC(=O)N1CCn2c(nnc2C(F)(F)F)C1)Cc1cc(F)c(F)cc1F [sitagliptin]
